In ChEMBL document CHEMBL5113520, “From a Cone Snail Toxin to a Competitive MC4R Antagonist” (J Med Chem, 2022):
Active and inactive are the calls of the source. The rule behind the calls is not given here. Where a SMILES comes first, the peptide text is derived from it. Bridges are numbered along the chain shown (N, C = ends).

Columns and labels:
[1] = target: T1, Melanocortin receptor 4 (Homo sapiens, UniProt P32245); test: Antagonist activity at human MC4R in HEK293SL cells assessed as Gs activation incubated for 30 mins in presence of NDP-alpha-MSH by BRET assay; format: functional, cell-based; conditions: filed as antagonist
[2] = target: T1, Melanocortin receptor 4; test: Antagonist activity at human MC4R in HEK293SL cells assessed as beta-arrestin2 activation incubated for 30 mins in presence of NDP-alpha-MSH by BRET assay; format: functional, cell-based; conditions: filed as antagonist
[3] = target: T1, Melanocortin receptor 4; test: Antagonist activity at human MC4R in HEK293SL cells assessed as Gs activation at 30 uM incubated for 30 mins in presence of alpha-MSH by BRET assay; format: functional, cell-based; conditions: filed as antagonist
[4] = target: T1, Melanocortin receptor 4; test: Antagonist activity at human MC4R in HEK293SL cells assessed as G15 activation incubated for 30 mins in presence of alpha-MSH by BRET assay; format: functional, cell-based; conditions: filed as antagonist
[5] = target: T1, Melanocortin receptor 4; test: Antagonist activity at human MC4R in HEK293SL cells assessed as G15 activation incubated for 30 mins in presence of NDP-alpha-MSH by BRET assay; format: functional, cell-based; conditions: filed as antagonist
[6] = species: Homo sapiens; test: Selectivity ratio of Ki for human […] expressed in CHO cells to Ki for human MC4R expressed in CHO cells; format: cell-based
[7] = target: T1, Melanocortin receptor 4; test: Antagonist activity at human MC4R in HEK293SL cells assessed as beta-arrestin2 activation incubated for 30 mins in presence of alpha-MSH by BRET assay; format: functional, cell-based; conditions: filed as antagonist
[8] = target: Melanocortin receptor 5 (Homo sapiens, UniProt P33032); test: Displacement of [125I]-NDP-alpha-MSH from human MC5R expressed in CHO cells by Topcount beta counter analysis; format: cell-based
[9] = target: T1, Melanocortin receptor 4; test: Displacement of [125I]-NDP-alpha-MSH from human MC4R expressed in CHO cells by Topcount beta counter analysis; format: cell-based
[10] = target: Melanocortin receptor 3 (Homo sapiens, UniProt P41968); test: Displacement of [125I]-NDP-alpha-MSH from human MC3R expressed in HEK293 cells by Topcount beta counter analysis; format: cell-based
[11] = target: T2, Type-1 angiotensin II receptor (Homo sapiens) (UniProt P30556); test: Inhibition of human AT1R expressed in CHO cells at 50 uM by Topcount beta counter analysis relative to control; format: cell-based
T2 sequence (whole entry): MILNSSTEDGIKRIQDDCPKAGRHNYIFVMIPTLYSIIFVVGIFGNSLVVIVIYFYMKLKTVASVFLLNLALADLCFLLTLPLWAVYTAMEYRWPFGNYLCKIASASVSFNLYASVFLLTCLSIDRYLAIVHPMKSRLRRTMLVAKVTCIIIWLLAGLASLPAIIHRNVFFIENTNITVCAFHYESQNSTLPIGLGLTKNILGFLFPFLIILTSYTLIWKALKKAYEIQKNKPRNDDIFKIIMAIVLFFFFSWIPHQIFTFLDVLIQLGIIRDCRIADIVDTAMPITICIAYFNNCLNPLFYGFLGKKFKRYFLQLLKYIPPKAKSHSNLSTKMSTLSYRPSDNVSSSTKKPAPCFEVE

[12] = species: Homo sapiens; test: Selectivity ratio of Ki for human MC1R expressed in CHO cells to Ki for human MC4R expressed in CHO cells; format: cell-based
[13] = target: T1, Melanocortin receptor 4; test: Antagonist activity at human MC4R in HEK293SL cells assessed as Gs activation incubated for 30 mins in presence of alpha-MSH by BRET assay; format: functional, cell-based; conditions: filed as antagonist
[14] = target: Melanocyte-stimulating hormone receptor (Homo sapiens, UniProt Q01726); test: Displacement of [125I]-NDP-alpha-MSH from human MC1R expressed in CHO cells by Topcount beta counter analysis; format: cell-based
[15] = species: Homo sapiens; test: Selectivity ratio of Ki for human MC3R expressed in HEK293 cells to Ki for human MC4R expressed in CHO cells; format: cell-based

Chain of Melanocortin receptor 3 (P41968 whole entry): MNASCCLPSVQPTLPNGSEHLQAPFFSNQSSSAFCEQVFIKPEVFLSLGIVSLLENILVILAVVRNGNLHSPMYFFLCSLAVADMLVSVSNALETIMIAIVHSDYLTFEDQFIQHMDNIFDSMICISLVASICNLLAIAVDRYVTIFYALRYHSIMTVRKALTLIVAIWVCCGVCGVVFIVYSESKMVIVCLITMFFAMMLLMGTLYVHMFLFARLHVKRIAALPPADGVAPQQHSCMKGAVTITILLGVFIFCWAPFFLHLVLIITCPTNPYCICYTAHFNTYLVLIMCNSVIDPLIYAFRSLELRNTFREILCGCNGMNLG
Chain of Melanocyte-stimulating hormone receptor (Q01726 whole entry): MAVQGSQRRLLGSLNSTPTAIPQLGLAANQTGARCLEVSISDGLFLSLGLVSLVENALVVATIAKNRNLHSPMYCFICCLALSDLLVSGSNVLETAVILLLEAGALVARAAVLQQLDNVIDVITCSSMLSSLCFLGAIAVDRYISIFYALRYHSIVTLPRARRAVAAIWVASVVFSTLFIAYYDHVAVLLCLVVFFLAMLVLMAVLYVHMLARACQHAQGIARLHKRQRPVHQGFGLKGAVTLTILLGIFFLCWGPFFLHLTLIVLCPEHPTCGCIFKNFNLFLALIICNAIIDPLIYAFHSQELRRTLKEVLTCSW
Chain of Melanocortin receptor 5 (P33032 whole entry): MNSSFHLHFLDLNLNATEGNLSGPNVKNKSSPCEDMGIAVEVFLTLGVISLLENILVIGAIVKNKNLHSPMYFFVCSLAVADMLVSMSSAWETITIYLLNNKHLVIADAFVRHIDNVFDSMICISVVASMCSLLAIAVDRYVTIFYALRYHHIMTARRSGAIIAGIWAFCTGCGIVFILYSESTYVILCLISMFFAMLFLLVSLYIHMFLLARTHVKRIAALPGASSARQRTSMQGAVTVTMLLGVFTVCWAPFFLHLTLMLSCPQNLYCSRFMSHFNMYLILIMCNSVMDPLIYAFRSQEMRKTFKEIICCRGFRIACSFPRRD
T1 sequence (P32245 whole entry): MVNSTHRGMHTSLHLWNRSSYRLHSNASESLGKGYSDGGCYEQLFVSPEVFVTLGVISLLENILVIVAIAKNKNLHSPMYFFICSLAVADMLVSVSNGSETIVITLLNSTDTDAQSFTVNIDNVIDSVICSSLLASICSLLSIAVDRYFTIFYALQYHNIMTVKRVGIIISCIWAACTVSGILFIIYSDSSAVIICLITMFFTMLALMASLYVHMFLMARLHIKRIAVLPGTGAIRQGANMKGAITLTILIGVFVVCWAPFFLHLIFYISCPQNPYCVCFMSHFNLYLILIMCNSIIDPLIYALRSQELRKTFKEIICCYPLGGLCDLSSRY

Row | Compound | Kb [1] | Kb [2] | Activity [3] | Kb [4] | Kb [5] | Ratio Ki [6] | Kb [7] | Ki ([8]; read-out: Ki) | Ki ([8]; read-out: pKi (converted)) | Ki ([9]; read-out: Ki) | Ki ([9]; read-out: pKi (converted)) | Ki ([10]; read-out: Ki) | Ki ([10]; read-out: pKi (converted)) | inhibition [11] | Ratio Ki [12] | Kb [13] | Ki ([14]; read-out: Ki) | Ki ([14]; read-out: pKi (converted)) | Ratio Ki [15]
1 | H-LFHYQQKQKPPGFKGKFQQFKLRPP-OH | 32300 nM | 3800 nM | Active | 6000 nM | 3000 nM | 13 | 33000 nM | 195 nM | 182 nM | 15 nM | 13.5 nM | 41 nM | 38.9 nM | 77% | 13 | 28000 nM | 197 nM | 182 nM | 3
2 | CC(C)C[C@H](NC(=O)[C@H](CCCCN)NC(=O)[C@H](Cc1ccccc1)NC(=O)[C@H](CCC(N)=O)NC(=O)[C@@H]1CSSC[C@H](NC(=O)[C@H](Cc2ccc(O)cc2)NC(=O)[C@H](Cc2c[nH]cn2)NC(=O)[C@H](Cc2ccccc2)NC(=O)[C@@H](N)CC(C)C)C(=O)N[C@@H](CCC(N)=O)C(=O)N[C@H]2CSSC[C@H](NC(=O)[C@H](CCC(N)=O)NC2=O)C(=O)N2CCC[C@H]2C(=O)N2CCC[C@H]2C(=O)NCC(=O)N[C@@H](Cc2ccccc2)C(=O)N[C@@H](CCCCN)C(=O)NCC(=O)N[C@@H](CCCCN)C(=O)N[C@@H](Cc2ccccc2)C(=O)N1)C(=O)N[C@@H](CCCNC(=N)N)C(=O)N1CCC[C@H]1C(=O)N1CCC[C@H]1C(=O)O (H-LFHYCQCQCPPGFKGKFCQFKLRPP-OH; disulfide 5-18, 7-9) | – | – | – | – | – | – | – | 41 nM | 28.8 nM | 48 nM | 43.7 nM | 110 nM | 97.7 nM | – | – | – | 554 nM | 490 nM | –
3 | CC(C)C[C@@H]1NC(=O)[C@H](CCC(N)=O)NC(=O)[C@@H](NC(=O)[C@H](Cc2ccc(O)cc2)NC(=O)[C@H](Cc2c[nH]cn2)NC(=O)[C@H](Cc2ccccc2)NC(=O)[C@@H](N)CC(C)C)CSSC[C@@H](C(=O)N[C@@H](CCC(N)=O)C(=O)N[C@@H](Cc2ccccc2)C(=O)N[C@@H](CCCCN)C(=O)N[C@@H](CC(C)C)C(=O)N[C@@H](CCCNC(=N)N)C(=O)N2CCC[C@H]2C(=O)N2CCC[C@H]2C(=O)O)NC(=O)[C@H](Cc2ccccc2)NC(=O)[C@H](CCCCN)NC(=O)CNC(=O)[C@H](CCCCN)NC(=O)[C@H](Cc2ccccc2)NC(=O)CNC(=O)[C@@H]2CCCN2C(=O)[C@@H]2CCCN2C(=O)[C@H](CC(C)C)NC(=O)[C@H](CCC(N)=O)NC1=O (H-LFHYCQLQLPPGFKGKFCQFKLRPP-OH; disulfide 5-18) | – | – | – | – | – | – | – | – | 117 nM | – | 93.3 nM | – | 275 nM | – | – | – | – | 398 nM | –
